Data as given in patent publication US10988449B2, “Isoxazole derivatives as nuclear receptor agonists and uses thereof” (IL DONG PHARMACEUTICAL CO., LTD., priority 2017, dated 2021).
Where a name gives a salt, the structure may show the parent alone.

Target: T1, human FXR (Homo sapiens, UniProt Q96RI1)
T1 construct: expressed in transfected cells
T1 sequence (Q96RI1 1-486): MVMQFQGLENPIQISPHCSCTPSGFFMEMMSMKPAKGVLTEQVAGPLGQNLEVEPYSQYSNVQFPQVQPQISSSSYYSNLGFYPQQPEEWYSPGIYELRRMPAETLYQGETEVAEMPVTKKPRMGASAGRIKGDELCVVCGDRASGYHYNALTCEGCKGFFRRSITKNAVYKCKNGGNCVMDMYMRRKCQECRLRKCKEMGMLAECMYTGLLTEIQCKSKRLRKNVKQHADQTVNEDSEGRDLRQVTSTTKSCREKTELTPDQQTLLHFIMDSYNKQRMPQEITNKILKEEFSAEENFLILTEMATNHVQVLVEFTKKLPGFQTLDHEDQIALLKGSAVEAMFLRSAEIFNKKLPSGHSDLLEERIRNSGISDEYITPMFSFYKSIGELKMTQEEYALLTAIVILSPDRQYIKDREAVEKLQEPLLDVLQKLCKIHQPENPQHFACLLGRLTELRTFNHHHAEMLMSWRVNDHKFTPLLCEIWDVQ
Experiment: FXR reporter assay (cellular FXR activities)
Assay type: cell-based
Details: for EC50: FXR reporter cells, 24 hours incubation, luciferase, read-out: Reporter Cell EC50; for Emax: read-out: Emax (%) (GW4064 Emax = 100%)
Description: FXR reporter assay was performed to measure cellular FXR activities of the compounds in the present invention. FXR reporter cells with high expression level of human FXR were seeded into 96-well cell culture plates, and incubated for 1-2 hours at 37° C. under 5% CO2 atmosphere. The invented compounds diluted in DMSO with various concentrations were added to the 96-well cell culture plates, and they were incubated for 24 hours at 37° C. under 5% CO2 atmosphere. After incubation, we calculate EC50 by using luciferase substrate.

Row | Structure (SMILES) | EC50 [nM] | Emax [%]
1 | COc1cc(C#Cc2ccc(OCc3c(-c4c(Cl)cccc4Cl)noc3C3CC3)cc2Cl)cc(C(=O)O)c1 [Compound I-40, 3-((2-chloro-4-((5-cyclopropyl-3-(2,6-dichlorophenyl)isoxazol-4-yl)methoxy)phenyl)ethynyl)-5-methoxybenzoic acid] | 20 to 60 | 83
2 | O=Cc1cc(C#Cc2ccc(OCc3c(-c4c(Cl)cccc4Cl)noc3C3CC3)cc2Cl)cc(C(=O)O)c1 [Compound I-41, 3-((2-chloro-4-((5-cyclopropyl-3-(2,6-dichlorophenyl)isoxazol-4-yl)methoxy)phenyl)ethynyl)-5-formylbenzoic acid] | 20 to 60 | > 100
3 | O=C(O)c1cc(C#Cc2ccc(OCc3c(-c4c(Cl)cccc4Cl)noc3C3CC3)cc2Cl)cc(CN2CCC2)c1 [Compound I-43, 3-(azetidin-1-ylmethyl)-5-((2-chloro-4-((5-cyclopropyl-3-(2,6-dichlorophenyl)isoxazol-4-yl)methoxy)phenyl)ethynyl)benzoic acid] | 60 to 200 | > 100
4 | O=C(O)c1cc(C#Cc2ccc(OCc3c(-c4c(Cl)cccc4Cl)noc3C3CC3)cc2Cl)cc(CNCC(F)(F)F)c1 [Compound I-46, 3-((2-chloro-4-((5-cyclopropyl-3-(2,6-dichlorophenyl)isoxazol-4-yl)methoxy)phenyl)ethynyl)-5-(((2,2,2-trifluoroethyl)amino)methyl)benzoic acid] | 60 to 200 | 99
5 | CC(C)(C)NCc1cc(C#Cc2ccc(OCc3c(-c4c(Cl)cccc4Cl)noc3C3CC3)cc2Cl)cc(C(=O)O)c1 [Compound I-48, 3-((tert-butylamino)methyl)-5-((2-chloro-4-((5-cyclopropyl-3-(2,6-dichlorophenyl)isoxazol-4-yl)methoxy)phenyl)ethynyl)benzoic acid] | 200 to 1000 | 81
6 | O=C(O)c1cc(C#Cc2ccc(OCc3c(-c4c(Cl)cccc4Cl)noc3C3CC3)cc2Cl)cc(CN2CCOCC2)c1 [Compound I-50, 3-((2-chloro-4-((5-cyclopropyl-3-(2,6-dichlorophenyl)isoxazol-4-yl)methoxy)phenyl)ethynyl)-5-(morpholinomethyl)benzoic acid] | 20 to 60 | > 100
7 | O=C(O)c1cc(C#Cc2ccc(OCc3c(-c4c(Cl)cccc4Cl)noc3C3CC3)cc2Cl)cc(CNC2COC2)c1 [Compound I-51, 3-((2-chloro-4-((5-cyclopropyl-3-(2,6-dichlorophenyl)isoxazol-4-yl)methoxy)phenyl)ethynyl)-5-((oxetan-3-ylamino)methyl)benzoic acid] | 200 to 1000 | 75
8 | CCNc1cc(C#Cc2ccc(OCc3c(-c4c(Cl)cccc4Cl)noc3C3CC3)cc2Cl)cc(C(=O)O)c1 [Compound I-53, 3-((2-chloro-4-((5-cyclopropyl-3-(2,6-dichlorophenyl)isoxazol-4-yl)methoxy)phenyl)ethynyl)-5-(ethylamino)benzoic acid] | ≤ 20 | 93
9 | O=C(O)c1cc(C#Cc2ccc(OCc3c(-c4c(Cl)cccc4Cl)noc3C3CC3)cc2Cl)cc(N2CCNCC2)c1 [Compound I-59, 3-((2-chloro-4-((5-cyclopropyl-3-(2,6-dichlorophenyl)isoxazol-4-yl)methoxy)phenyl)ethynyl)-5-(piperazin-1-yl)benzoic acid hydrochloride] | 200 to 1000 | 90
10 | COc1c(N)cc(C(=O)O)cc1C#Cc1ccc(OCc2c(-c3c(Cl)cccc3Cl)noc2C2CC2)cc1Cl [Compound I-61, 3-amino-5-((2-chloro-4-((5-cyclopropyl-3-(2,6-dichlorophenyl)isoxazol-4-yl)methoxy)phenyl)ethynyl)-4-methoxybenzoic acid] | 60 to 200 | 95
11 | COc1c(N)cc(C#Cc2ccc(OCc3c(-c4c(Cl)cccc4Cl)noc3C3CC3)cc2Cl)cc1C(=O)O [Compound I-62, 3-amino-5-((2-chloro-4-((5-cyclopropyl-3-(2,6-dichlorophenyl)isoxazol-4-yl)methoxy)phenyl)ethynyl)-2-methoxybenzoic acid] | 60 to 200 | > 100

Other lines, results leading:

Row | EC50 [nM] | Emax [%] | Structure (SMILES)
12 | 20 to 60 | > 100 | O=C(O)c1cc(C#Cc2ccc(OCc3c(-c4c(Cl)cccc4Cl)noc3C3CC3)cc2Cl)cc(CNC2CC2)c1 [Compound I-42, 3-((2-chloro-4-((5-cyclopropyl-3-(2,6-dichlorophenyl)isoxazol-4-yl)methoxy)phenyl)ethynyl)-5-((cyclopropylamino)methyl)benzoic acid]
13 | 200 to 1000 | > 100 | CNCc1cc(C#Cc2ccc(OCc3c(-c4c(Cl)cccc4Cl)noc3C3CC3)cc2Cl)cc(C(=O)O)c1 [Compound I-44, 3-((2-chloro-4-((5-cyclopropyl-3-(2,6-dichlorophenyl)isoxazol-4-yl)methoxy)phenyl)ethynyl)-5-((methylamino)methyl)benzoic acid]
14 | 200 to 1000 | 88 | CCNCc1cc(C#Cc2ccc(OCc3c(-c4c(Cl)cccc4Cl)noc3C3CC3)cc2Cl)cc(C(=O)O)c1 [Compound I-45, 3-((2-chloro-4-((5-cyclopropyl-3-(2,6-dichlorophenyl)isoxazol-4-yl)methoxy)phenyl)ethynyl)-5-((ethylamino)methyl)benzoic acid]
15 | 20 to 60 | > 100 | CN(C)Cc1cc(C#Cc2ccc(OCc3c(-c4c(Cl)cccc4Cl)noc3C3CC3)cc2Cl)cc(C(=O)O)c1 [Compound I-49, 3-((2-chloro-4-((5-cyclopropyl-3-(2,6-dichlorophenyl)isoxazol-4-yl)methoxy)phenyl)ethynyl)-5-((dimethylamino)methyl)benzoic acid]
16 | 20 to 60 | > 100 | O=C(O)c1cc(C#Cc2ccc(OCc3c(-c4c(Cl)cccc4Cl)noc3C3CC3)cc2Cl)cc(N2CCC2)c1 [Compound I-55, 3-(azetidin-1-yl)-5-((2-chloro-4-((5-cyclopropyl-3-(2,6-dichlorophenyl)isoxazol-4-yl)methoxy)phenyl)ethynyl)benzoic acid]
17 | ≤ 20 | 96 | O=C(O)c1cc(C#Cc2ccc(OCc3c(-c4c(Cl)cccc4Cl)noc3C3CC3)cc2Cl)cc(N2CCCC2)c1 [Compound I-56, 3-((2-chloro-4-((5-cyclopropyl-3-(2,6-dichlorophenyl)isoxazol-4-yl)methoxy)phenyl)ethynyl)-5-(pyrrolidin-1-yl)benzoic acid]
18 | > 1000 | 75 | O=C(O)c1cc(C#Cc2ccc(OCc3c(-c4c(Cl)cccc4Cl)noc3C3CC3)cc2Cl)cc(NC2CCNCC2)c1 [Compound I-58, 3-((2-chloro-4-((5-cyclopropyl-3-(2,6-dichlorophenyl)isoxazol-4-yl)methoxy)phenyl)ethynyl)-5-(piperidin-4-ylamino)benzoic acid hydrochloride]
19 | 20 to 60 | 98 | Cc1c(N)cc(C(=O)O)cc1C#Cc1ccc(OCc2c(-c3c(Cl)cccc3Cl)noc2C2CC2)cc1Cl [Compound I-60, 3-amino-5-((2-chloro-4-((5-cyclopropyl-3-(2,6-dichlorophenyl)isoxazol-4-yl)methoxy)phenyl)ethynyl)-4-methylbenzoic acid]
20 | 20 to 60 | > 100 | O=C(O)c1cc(C#Cc2ccc(OCc3c(-c4c(Cl)cccc4Cl)noc3C3CC3)cc2Cl)cc(C2CC2)c1 [Compound I-64, 3-((2-chloro-4-((5-cyclopropyl-3-(2,6-dichlorophenyl)isoxazol-4-yl)methoxy)phenyl)ethynyl)-5-cyclopropylbenzoic acid]
